This note sets out measurements from patent US8541670B2, “Compositions and methods for inhibiting tumor cell growth” (priority 2007, dated 2013).

For one test, the target named is PAK3 (Homo sapiens, UniProt O75914). As to the kind of experiment: In vitro kinase assay PAK3. In kind it is biochemical. As to conditions: ten times higher concentration than 0.1 μM. As to the method:
As a specific substrate, the phosphorylation level of GSK-3[…] at Ser-9 was also evaluated. […] The decrease was specific to the AKT phosphorylation site on GSK-3[…] at Ser-9, since a change in the phosphorylation level of GSK-3[…] at Tyr-216 or GSK-3[…] at Tyr-279 was not observed. Moreover, the in vivo reduction of the phosphorylation of AKT substrates was more obvious at the injection site, since a significant change in the phosphorylation of AKT substrates in the frontal cortex or cerebellum between the two hemispheres was not observed. […] To test the specificity/selectivity of ZaTa as the inhibitor of AKT1 versus the other major kinases, a series of in vitro kinase assays was performed at IC50 for AKT1 and at ten times higher concentrations. A panel of the following 32 kinases was first tested in vitro using the active form of each kinase and a specific substrate: AKT2, AKT3, PKA, PKC[…], PKC, PI3K[…], PI3K[…], PI3K, SGK, PAK2, PAK3, SAPK2/p38, Abl, CaMKII, CDK1/cyclinB, CDK5/p35, CK1, CK2, CSK, GSK3[…], GSK3[…], JNK1[…]1, MAPK1, p70S6K, PDGFR[…], PDGFR[…], PDK1, PKG1[…], TrkB, JAK2, JAK3, and Syk. […] However, at ten times higher concentration, ZaTa inhibited AKT2 (63%), PI3K[…] (72%), p70S6K (64%), SGK (73%), PAK3 (83%), JAK3 (79%), TrkB (84%), and Abl (42%). […]

Another test deals with PKA, PKC, CDKs. Nature of the test: In vivo phosphorylation of substrates of PKA, PKC, CDKs (consensus-site phospho-specific antibodies). As to conditions: after in vivo injection. Also noted: species or system mouse. How it is done:
To analyze in vivo selectivity, ZaTa was injected into one hemisphere and DMSO in the other hemisphere, as above, and a series of western blot analyses was preformed with phospho-specific antibodies which recognize a phosphorylated substrate or each one of the kinases that ZaTa inhibited at higher concentrations in vitro. […] Given the high functional and structural homology between p70S6K and AKT, the in vivo inhibitory effect of ZaTa on p70S6K was contemplated. Furthermore, the in vivo effect of ZaTa on the phosphorylation levels of substrates for PKA, PKC, CDKs using phospho-specific antibodies recognizing the phosphorylated consensus sites of these kinases was analyzed. In contrast to the consistent decrease in phosphorylation of AKT substrates, significant changes in the phosphorylation level of PKA, PKC and CDKs substrates was not observed after in vivo injection of ZaTa. […]

Test [1] deals with non-proliferating neurons in primary cortical culture. Nature of the test: TUNEL assay in primary cortical neuron culture. In kind it is cell-based. As to conditions: 1 or 5 µM, 72-hour treatment, compared to control peptide. How it is done: It is now well-established that AKT protects against apoptosis through phosphorylation and inhibition of pro-apoptotic mediators such as BAD, FOXO family members and IKK-[…] (Datta, et al. (1999) Genes Dev. 13:2905-2927). […] Primary neurons were treated with DMSO, 1 µM or 5 µM of either ZaTa or the control peptide for a duration of 1, 3, 16, 24, 48 or 72 hours. The number of apoptotic cells was counted following the TUNEL assay. […] The increase in the number of apoptotic neurons following treatment with ZaTa was consistent with its potent intra-neuronal inhibition of AKT.

The target in another test is AKT-PKAc complex (Mus musculus, UniProt P31750). Nature of the test: Co-immunoprecipitation of AKT-PKAc complex in N2a cells. In kind it is cell-based. Details: Neuroblastoma 2a (N2a) neurons expressing an endogenous level of AKT and PKAc; endogenous in cells; host or cells: N2a neuroblastoma cells. Particulars: 24-hour treatment. How it is done:
Accordingly, the stability and phenotypic consequences of the AKT-PKAc complex was also analyzed in cultured neurons. N2a cells were treated with vehicle, ZaTa or control peptide for 24 hours. Media was removed after the 24-hour treatment and an equal number of cells from each treatment group was either cultured for another 24 hours without treatment, or lysed and subjected to immunoprecipitation with an antibody against AKT. Those cells cultured for another 24 hours were also harvested and subjected to immunoprecipitation. In parallel, the number of individual neurons with neurites was counted. […] Live images of N2a neurons were captured following treatment with vehicle or ZaTa (2 or 5 μM). […] ZaTa-mediated changes included a progressive loss of neurites, inhibition of new neurite formation, loss of cell motility, as well as formation of large cell colonies.

Another test has as its system PI3K. As to the kind of experiment: Cell-based kinase assay, phosphorylation of intracellular substrate (Ser-241 PDK1). As to the method:
As a specific substrate, the phosphorylation level of GSK-3[…] at Ser-9 was also evaluated. […] The decrease was specific to the AKT phosphorylation site on GSK-3[…] at Ser-9, since a change in the phosphorylation level of GSK-3[…] at Tyr-216 or GSK-3[…] at Tyr-279 was not observed. Moreover, the in vivo reduction of the phosphorylation of AKT substrates was more obvious at the injection site, since a significant change in the phosphorylation of AKT substrates in the frontal cortex or cerebellum between the two hemispheres was not observed. […] To test the specificity/selectivity of ZaTa as the inhibitor of AKT1 versus the other major kinases, a series of in vitro kinase assays was performed at IC50 for AKT1 and at ten times higher concentrations. […]
Phosphorylation sites for kinases analyzed herein included Ser-235/236 S6 (a substrate for p70S6K), Tyr-207 CRKL (a substrate for Abl; Zipfel, et al. (2004) supra), Ser-241 PDK1 (a substrate for PI3K), Tyr-1022/1023 JAK1 (a substrate for JAK3; Wang, et al. (2003) supra), Ser-421 Huntingtin (a substrate for SGK; Rangone, et al. (2004) supra), Tyr-783 PLC (a substrate for TrkB; Middlemas, et al. (1994) supra), and Ser-338 cRaf (a substrate for PAK3; King, et al. (1998) supra).

Where no end group is shown, it is not given here. red fluorescent dye = not defined here

Chain of AKT-PKAc complex (P31750 whole entry, one chain of several): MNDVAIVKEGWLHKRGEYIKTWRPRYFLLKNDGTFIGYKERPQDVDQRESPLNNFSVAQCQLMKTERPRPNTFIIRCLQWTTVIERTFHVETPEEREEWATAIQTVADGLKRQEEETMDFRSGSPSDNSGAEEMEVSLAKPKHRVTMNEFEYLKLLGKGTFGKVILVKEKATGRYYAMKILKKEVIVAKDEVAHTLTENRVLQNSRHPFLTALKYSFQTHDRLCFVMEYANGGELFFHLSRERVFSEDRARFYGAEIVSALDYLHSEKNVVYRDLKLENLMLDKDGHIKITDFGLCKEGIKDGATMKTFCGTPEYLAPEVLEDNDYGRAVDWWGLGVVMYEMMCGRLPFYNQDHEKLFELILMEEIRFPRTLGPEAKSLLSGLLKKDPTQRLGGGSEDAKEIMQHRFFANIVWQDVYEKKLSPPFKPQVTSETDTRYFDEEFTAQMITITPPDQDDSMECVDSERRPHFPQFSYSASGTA
Chain of PAK3 (O75914 whole entry, species assumed): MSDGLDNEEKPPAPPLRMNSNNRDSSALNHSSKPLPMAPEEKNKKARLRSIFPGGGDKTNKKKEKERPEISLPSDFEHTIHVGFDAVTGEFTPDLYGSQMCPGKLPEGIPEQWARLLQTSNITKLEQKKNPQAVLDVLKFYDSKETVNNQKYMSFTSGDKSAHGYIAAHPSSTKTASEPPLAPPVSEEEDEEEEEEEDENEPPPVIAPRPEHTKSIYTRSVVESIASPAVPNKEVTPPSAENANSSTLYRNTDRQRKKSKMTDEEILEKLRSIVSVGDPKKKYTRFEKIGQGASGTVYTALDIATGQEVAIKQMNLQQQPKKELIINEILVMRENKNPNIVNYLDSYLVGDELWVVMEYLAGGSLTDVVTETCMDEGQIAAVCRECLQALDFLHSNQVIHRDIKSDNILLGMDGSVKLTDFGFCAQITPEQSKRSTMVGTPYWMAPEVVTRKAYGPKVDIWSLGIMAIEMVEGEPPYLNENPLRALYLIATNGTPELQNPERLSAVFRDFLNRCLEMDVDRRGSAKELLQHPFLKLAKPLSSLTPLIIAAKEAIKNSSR

AKRVKGRTWTLCGTPEY [ZaTa]: at PAK3, the “inhibition of PAK3” value is 83%. Moreover, in the test with PKA, PKC, CDKs, the “changes in phosphorylation level of PKA, PKC and CDKs substrates” value is “not observed”. Moreover, in test [1], the “number of TUNEL-positive cells” value is listed as “marked dose-dependent increase”. Further, the “amount of PKAc in physical contact with AKT, N2a cells” value on AKT-PKAc complex was “reduced the amount of PKAc in physical contact with AKT”.

In the case of “labeled ZaTa: ZaTa peptide labeled with a red fluorescent dye at its N-terminus ({red fluorescent dye}-AKRVKGRTWTLCGTPEY; reading uncertain)”, the “inhibition of PI3K in cells” value in the test with PI3K is “did not cause inhibition”.
